Reference: patent publication US10626144B2, “Peptide derivatives and uses thereof” (Nosopharm, priority 2014, dated 2020)
Numbered stars: 1 amine (or outer) side, 2 acyl side, 3 side chain; on linkers, the order of the positions; unused ones are H or OH. Square brackets hold non-standard residues; d marks the D form. Peptide text beside a SMILES is read from it. * marks the point of attachment. Phe(4-Cl) = N[C@@H](Cc1ccc(Cl)cc1)C(=O)O; Phe(3-F) = N[C@@H](Cc1cccc(F)c1)C(=O)O; Dab(3S-OH) = NC[C@H](O)[C@H](N)C(=O)O; Hyp = O=C(O)[C@@H]1C[C@@H](O)CN1; 3Pal = N[C@@H](Cc1cccnc1)C(=O)O; 4Pal = N[C@@H](Cc1ccncc1)C(=O)O; ΔZArg = N=C(N)NCC/C=C(\N)C(=O)O; Lys(Me) = CNCCCC[C@H](N)C(=O)O; NMeK = CN[C@@H](CCCCN)C(=O)O; X2 = CC=C(N[*:1])C(=O)[*:2]; hLys = NCCCCC[C@H](N)C(=O)O; dOrn = NCCC[C@@H](N)C(=O)O; Pip = O=C(O)[C@@H]1CCCCN1; NMeA = CN[C@@H](C)C(=O)O; Aze = O=C(O)[C@@H]1CCN1; NH(CH2)4NH2 = NCCCCN*

How the values were obtained:
Test in all cases: MIC, broth microdilution (CLSI), reference strain
Details in all cases: CAMHB
[1] = test system: Pseudomonas aeruginosa ATCC 27853
[2] = test system: Escherichia coli ATCC 25922
[3] = test system: Staphylococcus aureus ATCC 13709
[4] = test system: Acinetobacter baumannii ATCC 19606

| Pa: MIC Pseudomonas aeruginosa ATCC 27853 [1] | Ec: MIC Escherichia coli ATCC 25922 [2] | Sa: MIC Staphylococcus aureus ATCC 13709 [3] | Ab: MIC Acinetobacter baumannii ATCC 19606 [4] | SMILES |
| --- | --- | --- | --- | --- |
| − (>32 μg/mL) | ++ (≤8 μg/mL) | ++ (≤8 μg/mL) | − (>32 μg/mL) | CN[C@@H](CCCCN)C(=O)N[C@H](C(=O)N[C@@H](C)C(=O)NCC(=O)N[C@H](CCCN)C(=O)N1CCC[C@H]1C(=O)N[C@@H](Cc1cnc[nH]1)C(=O)N[C@@H](CCCCN)C(=O)N/C(=C\CCNC(=N)N)C(N)=O)[C@@H](O)CN [24.63] (H-[NMeK][Dab(3S-OH)]AG[dOrn]PHK[ΔZArg]-NH2) |
| − (>32 μg/mL) | ++ (≤8 μg/mL) | ++ (≤8 μg/mL) | − (>32 μg/mL) | CNCCCC[C@H](N)C(=O)N[C@H](C(=O)N[C@@H](C)C(=O)NCC(=O)N[C@H](CCCN)C(=O)N1CCC[C@H]1C(=O)N[C@@H](Cc1cnc[nH]1)C(=O)N[C@@H](CCCCN)C(=O)N/C(=C\CCNC(=N)N)C(N)=O)[C@@H](O)CN [24.64] (H-[Lys(Me)][Dab(3S-OH)]AG[dOrn]PHK[ΔZArg]-NH2) |
| − (>32 μg/mL) | + (≤32 μg/mL) | ++ (≤8 μg/mL) | − (>32 μg/mL) | C[C@H](NC(=O)[C@@H](NC(=O)[C@@H](N)CCCCCN)[C@@H](O)CN)C(=O)NCC(=O)N[C@H](CCCN)C(=O)N1CCC[C@H]1C(=O)N[C@@H](Cc1cnc[nH]1)C(=O)N[C@@H](CCCCN)C(=O)N/C(=C\CCNC(=N)N)C(N)=O [24.69] (H-[hLys][Dab(3S-OH)]AG[dOrn]PHK[ΔZArg]-NH2) |
| − (>32 μg/mL) | − (>32 μg/mL) | + (≤32 μg/mL) | − (>32 μg/mL) | C[C@H](NC(=O)[C@@H](NC(=O)[C@@H](N)CCCCN)[C@@H](O)CN)C(=O)NCC(=O)N[C@H](CCCN)C(=O)N1C[C@H](O)C[C@H]1C(=O)N[C@@H](Cc1cnc[nH]1)C(=O)N[C@@H](CCCCN)C(=O)N/C(=C\CCNC(=N)N)C(=O)O [24.70] (H-K[Dab(3S-OH)]AG[dOrn][Hyp]HK[ΔZArg]-OH) |
| − (>32 μg/mL) | + (≤32 μg/mL) | + (≤32 μg/mL) | − (>32 μg/mL) | C[C@H](NC(=O)[C@@H](NC(=O)[C@@H](N)CCCCN)[C@@H](O)CN)C(=O)NCC(=O)N[C@H](CCCN)C(=O)N1CC[C@H]1C(=O)N[C@@H](Cc1cccc(F)c1)C(=O)N[C@@H](CCCCN)C(=O)N/C(=C\CCNC(=N)N)C(=O)O [24.71] (H-K[Dab(3S-OH)]AG[dOrn][Aze][Phe(3-F)]K[ΔZArg]-OH) |
| − (>32 μg/mL) | + (≤32 μg/mL) | ++ (≤8 μg/mL) | − (>32 μg/mL) | C[C@H](NC(=O)[C@@H](NC(=O)[C@@H](N)CCCCN)[C@@H](O)CN)C(=O)NCC(=O)N[C@H](CCCN)C(=O)N1CC[C@H]1C(=O)N[C@@H](Cc1ccc(Cl)cc1)C(=O)N[C@@H](CCCCN)C(=O)N/C(=C\CCNC(=N)N)C(=O)O [24.72] (H-K[Dab(3S-OH)]AG[dOrn][Aze][Phe(4-Cl)]K[ΔZArg]-OH) |
| − (>32 μg/mL) | + (≤32 μg/mL) | + (≤32 μg/mL) | − (>32 μg/mL) | C[C@H](NC(=O)[C@@H](NC(=O)[C@@H](N)CCCCN)[C@@H](O)CN)C(=O)NCC(=O)N[C@H](CCCN)C(=O)N1CC[C@H]1C(=O)N[C@@H](Cc1cnc[nH]1)C(=O)N[C@@H](CCCCN)C(=O)N/C(=C\CCNC(=N)N)C(=O)O [24.73] (H-K[Dab(3S-OH)]AG[dOrn][Aze]HK[ΔZArg]-OH) |
| − (>32 μg/mL) | + (≤32 μg/mL) | + (≤32 μg/mL) | − (>32 μg/mL) | C[C@H](NC(=O)[C@@H](NC(=O)[C@@H](N)CCCCN)[C@@H](O)CN)C(=O)NCC(=O)N[C@H](CCCN)C(=O)N1CCCC[C@H]1C(=O)N[C@@H](Cc1cnc[nH]1)C(=O)N[C@@H](CCCCN)C(=O)N/C(=C\CCNC(=N)N)C(=O)O [24.74] (H-K[Dab(3S-OH)]AG[dOrn][Pip]HK[ΔZArg]-OH) |

Second part, the molecule before the results:

| SMILES | Pa: MIC Pseudomonas aeruginosa ATCC 27853 [1] | Ec: MIC Escherichia coli ATCC 25922 [2] | Sa: MIC Staphylococcus aureus ATCC 13709 [3] | Ab: MIC Acinetobacter baumannii ATCC 19606 [4] |
| --- | --- | --- | --- | --- |
| CC=C(NC(=O)[C@H](CCCCN)NC(=O)[C@H](Cc1cnc[nH]1)NC(=O)[C@@H]1CCCN1C(=O)[C@@H](CCCN)NC(=O)CNC(=O)[C@H](C)NC(=O)[C@@H](NC(=O)[C@@H](N)CCCCN)[C@@H](O)CN)C(=O)N[C@@H](CCCCN)C(=O)NCCCCN [24.8] (H-K[Dab(3S-OH)]AG[dOrn]PHK[X2]K-{NH(CH2)4NH2}) | − (>32 μg/mL) | + (≤32 μg/mL) | ++ (≤8 μg/mL) | − (>32 μg/mL) |
| CC(=O)NCCCC[C@H](N)C(=O)N[C@H](C(=O)N[C@@H](C)C(=O)NCC(=O)N[C@H](CCCN)C(=O)N1CCC[C@H]1C(=O)N[C@@H](Cc1cnc[nH]1)C(=O)N[C@@H](CCCCN)C(=O)N/C(=C\CCNC(=N)N)C(=O)N[C@@H](CCCCN)C(=O)NCCCCN)[C@@H](O)CN [24.9] (H-K(Ac)[Dab(3S-OH)]AG[dOrn]PHK[ΔZArg]K-{NH(CH2)4NH2}) | − (>32 μg/mL) | − (>32 μg/mL) | + (≤32 μg/mL) | − (>32 μg/mL) |
| C[C@H](NC(=O)[C@@H](NC(=O)[C@@H](N)CCCCN)[C@@H](O)CN)C(=O)NCC(=O)N[C@H](CCCN)C(=O)N1CCC[C@H]1C(=O)N[C@@H](Cc1cccnc1)C(=O)N[C@@H](CCCCN)C(=O)N/C(=C\CCNC(=N)N)C(=O)N[C@@H](CCCCN)C(=O)NCCCCN [24.18] (H-K[Dab(3S-OH)]AG[dOrn]P[3Pal]K[ΔZArg]K-{NH(CH2)4NH2}) | − (>32 μg/mL) | ++ (≤8 μg/mL) | ++ (≤8 μg/mL) | − (>32 μg/mL) |
| C[C@H](NC(=O)[C@@H](NC(=O)[C@@H](N)CCCCN)[C@@H](O)CN)C(=O)NCC(=O)N[C@H](CCCN)C(=O)N1CCC[C@H]1C(=O)N[C@@H](Cc1ccncc1)C(=O)N[C@@H](CCCCN)C(=O)N/C(=C\CCNC(=N)N)C(=O)N[C@@H](CCCCN)C(=O)NCCCCN [24.19] (H-K[Dab(3S-OH)]AG[dOrn]P[4Pal]K[ΔZArg]K-{NH(CH2)4NH2}) | + (≤32 μg/mL) | ++ (≤8 μg/mL) | ++ (≤8 μg/mL) | − (>32 μg/mL) |
| C[C@H](NC(=O)[C@@H](NC(=O)[C@@H](N)CCCCN)[C@@H](O)CN)C(=O)NCC(=O)N[C@H](CCCN)C(=O)N1CCC[C@H]1C(=O)N[C@@H](CCC(N)=O)C(=O)N[C@@H](CCCCN)C(=O)N/C(=C\CCNC(=N)N)C(=O)N[C@@H](CCCCN)C(=O)NCCCCN [24.21] (H-K[Dab(3S-OH)]AG[dOrn]PQK[ΔZArg]K-{NH(CH2)4NH2}) | − (>32 μg/mL) | ++ (≤8 μg/mL) | ++ (≤8 μg/mL) | − (>32 μg/mL) |
| CNCCCC[C@H](N)C(=O)N[C@H](C(=O)N[C@@H](C)C(=O)NCC(=O)N[C@H](CCCN)C(=O)N1CCC[C@H]1C(=O)N[C@@H](Cc1cnc[nH]1)C(=O)N[C@@H](CCCCN)C(=O)N/C(=C\CCNC(=N)N)C(=O)N[C@@H](CCCCN)C(=O)NCCCCN)[C@@H](O)CN [24.43] (H-[Lys(Me)][Dab(3S-OH)]AG[dOrn]PHK[ΔZArg]K-{NH(CH2)4NH2}) | + (≤32 μg/mL) | ++ (≤8 μg/mL) | ++ (≤8 μg/mL) | − (>32 μg/mL) |
| CN[C@@H](CCCCN)C(=O)N[C@H](C(=O)N[C@@H](C)C(=O)NCC(=O)N[C@H](CCCN)C(=O)N1CCC[C@H]1C(=O)N[C@@H](Cc1cnc[nH]1)C(=O)N[C@@H](CCCCN)C(=O)N/C(=C\CCNC(=N)N)C(=O)N[C@@H](CCCCN)C(=O)NCCCCN)[C@@H](O)CN [24.61] (H-[NMeK][Dab(3S-OH)]AG[dOrn]PHK[ΔZArg]K-{NH(CH2)4NH2}) | + (≤32 μg/mL) | ++ (≤8 μg/mL) | ++ (≤8 μg/mL) | + (≤32 μg/mL) |
| C[C@H](NC(=O)[C@@H](NC(=O)[C@@H](N)CCCCN)[C@@H](O)CN)C(=O)NCC(=O)N[C@H](CCCN)C(=O)N1CCC[C@H]1C(=O)N[C@@H](Cc1cnc[nH]1)C(=O)N[C@@H](CCCCN)C(=O)N/C(=C\CCNC(=N)N)C(=O)N[C@@H](CCCCN)C(=O)O [24.62] (H-K[Dab(3S-OH)]AG[dOrn]PHK[ΔZArg]K-OH) | − (>32 μg/mL) | + (≤32 μg/mL) | ++ (≤8 μg/mL) | − (>32 μg/mL) |
| C[C@H](NC(=O)[C@@H](NC(=O)[C@@H](N)CCCCN)[C@@H](O)CN)C(=O)NCC(=O)N[C@H](CCCN)C(=O)N(C)[C@@H](C)C(=O)N[C@@H](Cc1cnc[nH]1)C(=O)N[C@@H](CCCCN)C(=O)N/C(=C\CCNC(=N)N)C(N)=O [24.65] (H-K[Dab(3S-OH)]AG[dOrn][NMeA]HK[ΔZArg]-NH2) | − (>32 μg/mL) | + (≤32 μg/mL) | ++ (≤8 μg/mL) | − (>32 μg/mL) |
| C[C@H](NC(=O)[C@@H](NC(=O)[C@@H](N)CCCCN)[C@@H](O)CN)C(=O)NCC(=O)N[C@H](CCCN)C(=O)N1CCC[C@H]1C(=O)N[C@@H](Cc1cnc[nH]1)C(=O)N[C@@H](CCCCN)C(=O)N[C@H](CCCNC(=N)N)C(N)=O [24.68] (H-K[Dab(3S-OH)]AG[dOrn]PHK[dR]-NH2) | − (>32 μg/mL) | + (≤32 μg/mL) | ++ (≤8 μg/mL) | − (>32 μg/mL) |
